Data taken from patent US8337891B2, “Enteric coated composition comprising prostaglandin analogs as chloride channel opener” (Sucampo AG, priority 2003, dated 2012).

How the values were obtained:
[1] = ratio of monocyclic/bicyclic tautomer in pH2 solvent by 1H-NMR; assay type: physicochemical
Method: The compound 1 (bicyclic structure, solid) was dissolved in D2O—CD3OD(1:1), which was adjusted to pH 2 with DCl. The ratio of monocyclic tautomer/bicyclic tautomer of compound 1 in the pH2 solvent was determined with ^1H-NMR.
According to the same manner described in the test example 2, the ratio of monocyclic tautomer/bicyclic tautomer of compound 2 in pH2 solvent was determined by ^1H-NMR.

[2] = tautomeric form of the solid compound; assay type: physicochemical; conditions: provided as a solid compound

Ratio of monocyclic tautomer (%) ([1]; D2O-CD3OD (1:1) adjusted to pH 2 with DCl, 1H-NMR, starting from solid bicyclic tautomer): 8.5% | compound converted into the monocyclic tautomer ([1]; pH2 solvent, bicyclic ring opened): more than 5% | proportion of the compound existing as the bicyclic structure [2]: ~100%
SMILES: CCCCC(F)(F)[C@@]1(O)CC[C@H]2[C@@H](CC(=O)[C@@H]2CCCCCCC(=O)O)O1 [Compound 1, 13,14-dihydro-15-keto-16,16-difluoro-PGE1]
